Test results reported in patent publication US9988405B2, “O-phenyl chalcone compounds and uses thereof” (Neopanora Bio-technology (Zhuhai) Ltd., priority 2014, dated 2018).
Like-named read-outs stand apart in the source and are kept apart here.

Tests used:
[1] = tested on: human ovary cancer cells A2780; experiment: SRB anti-proliferative assay, A2780; format: cell-based; conditions: read-out: Anti-proliferative IC50, A2780
Protocol: (§1) The present example evaluated the anti-tumor activity of the molecules provided by the present invention. The present example mainly used a method with SRB (sulforhodamine B) dying, in which proteins in the cell were stained with SRB dye to determine protein content in the cell so as to characterize cell growth density. Firstly, the test compound was formulated into a stock solution (10 mM), which was stored at 4° C. in a refrigerator. Prior to beginning the assay, the stock solution was diluted with DMSO into a series of different concentrations. The required concentrations were obtained by diluting with complete growth medium. Well growing cells were seeded in a 96-well plate (5000 cells/well, 100 uL) and cultured in an incubator at 37° C., 5% CO2, and 90% RH. 24 h later, the prepared compound solution (100 μL) was slowly added to cell solution in the 96-well plate, and the well with DMSO (final concentration 0.5%) instead of the drug was used as a drug free control. The plate was incubated for 48 h. In addition, a day 0 plate that was drug free was directly detected after cell seeded in the plate for 24 h. The 96-well plate was taken out and added with trichloroacetic acid (50 μL, final concentration 10%). The plate was incubated at 4° C. for 1 h to fix the cells.
(§2) The plate was washed with ultrapure water and air-dried. The plate was then stained with SRB dye (0.4% in 1% acetic acid, 100 μL) for 30 min at room temperature. The plate was then washed with 1% acetic acid and then air-dried. A Tris base solution (100 μL, 10 mM, pH10.4) was added, after which the plate was gently shaken for 1 h on an orbital shaker to ensure that the dyes were completed dissolved. The optical density (OD) was recorded on a TECAN Infinite M200 Pro multimode reader at 515 nm. The cell growth (% of control)=(OD value of wells added with drug−mean OD value of Day 0 plate)/(OD value of DMSO drug-free control well−mean OD value of Day 0 plate)*100.

[2] = tested on: human colon cancer cells HCT8; experiment: SRB anti-proliferative assay, HCT-8; format: cell-based; conditions: read-out: Anti-proliferative IC50, HCT-8
Protocol: as §1, §2

[3] = tested on: human lung cancer cells A549; experiment: SRB anti-proliferative assay, A549; format: cell-based; conditions: read-out: Anti-proliferative IC50, A549
Protocol: as §1, §2

[4] = tested on: human breast cancer cells MCF7; experiment: SRB anti-proliferative assay, MCF-7; format: cell-based; conditions: read-out: Anti-proliferative IC50, MCF-7
Protocol: as §1, §2

[5] = tested on: human nasopharyngeal carcinoma cells CNE2; experiment: SRB anti-proliferative assay, CNE2; format: cell-based; conditions: read-out: Anti-proliferative IC50, CNE2
Protocol: as §1, §2

[6] = tested on: human colon cancer cells SW480; experiment: SRB anti-proliferative assay, SW480; format: cell-based; conditions: read-out: Anti-proliferative IC50, SW480
Protocol: as §1, §2

[7] = tested on: human liver cancer cell HepG2; experiment: SRB anti-proliferative assay, HepG2; format: cell-based; conditions: read-out: Anti-proliferative IC50, HepG2
Protocol: as §1, §2

[8] = tested on: Paclitaxel-resistant human ovarian carcinoma cell A2780/TAX; experiment: SRB anti-proliferative assay, drug-resistant A2780/TAX; format: cell-based; conditions: read-out: Anti-proliferative IC50, A2780/TAX
Protocol: as §1, §2
(§3) We also evaluated the anti-proliferation activities of selected compounds against drug-resistant cancer cell lines.

[9] = tested on: incristine resistant human ileocecum carcinoma cell HCT-8/VCT; experiment: SRB anti-proliferative assay, drug-resistant HCT-8/VCT; format: cell-based; conditions: HCT8/VCT, read-out: Anti-proliferative IC50, HCT-8/VCT
Protocol: as §1, §2, §3

[10] = tested on: cis-platinum resistant human lung cancer cell A549/CDDP; experiment: SRB anti-proliferative assay, drug-resistant A549/CDDP; format: cell-based; conditions: read-out: Anti-proliferative IC50, A549/CDDP
Protocol: as §1, §2, §3

[11] = tested on: doxorubicin resistant breast cancer cell MCF-7/DOX; experiment: SRB anti-proliferative assay, drug-resistant MCF-7/DOX; format: cell-based; conditions: Homo sapiens, MCF7-DOX, read-out: Anti-proliferative IC50, MCF-7/DOX
Protocol: as §1, §2, §3

tubulin = experiment: Microtubule polymerization inhibition assay (tubulin polymerization assay kit); format: biochemical; conditions: 2 mg/ml tubulin, 37° C., fluorescence, 1 hour; read-out: IC50 on inhibition of microtubules polymerization
Protocol: Tubulin polymerization assay kit was used in the example, and the accompanying experimental protocol was followed. The specific method was described below.
Prior to the assay, the compounds were diluted with DMSO into a series of different concentrations and then diluted with sterile ultra-pure water into 10× solution of compounds. A 96-well plate was pre-warmed to 37° C. for 30 min in a multi-functional microplate reader. Reaction solution (2 mg/ml tubulin, 80 mM PIPES pH6.9, 2.0 mM MgCl2, 0.5 mM EGTA, 1.0 mM GTP, 15% glycerin) is prepared by materials needed in microtubule polymerization (tubulin buffer 85 uL, Glycerin buffer 150 μL, general buffer 205 μL, GTP ([…]) 4.4 μL). 5 μL solution of compound were added into the 96-well plate and incubated in a microplate reader for 1 min. DMSO was employed as a control. The plate was taken out and then reaction solution was immediately added ([…]). The plate was then immediately placed back into the reader and vibrated for 5 seconds before recording. The microplate reader was set at 37° C., and monitored in a kinetic model with emission wavelength at 450 nm and excitation wavelength at 360 nm. The plate was mixed and measured every minute and determined for 1 hour. A curve of fluorescence intensity v.s. time was obtained and the inhibition rate was calculated by the following formula. GraphPad Prism software was used to determine the IC50. Inhibition rate=[1−(average value of plateau of test curve−value of time 0)/(average value of plateau of DMSO curve−value of time 0)]*100.

[12] = paclitaxel-resistant A2780/TAX, SRB
[13] = vincristine-resistant HCT-8/VCT, SRB
[14] = cis-platinum resistant A549/CDDP, SRB
[15] = doxorubicin resistant MCF-7/DOX, SRB

Q: With CN(C)c1ccc(/C=C/C(=O)c2ccccc2-c2ccc(F)cc2)cc1 [compound 2, (E)-3-(4-(Dimethylamino)phenyl)-1-(4′-fluoro[1,1′-biphenyl]-2-yl)prop-2-en-1-one] as the compound, how does the IC50 ([1]; A2780, SRB, 48 h) read?
A: 0.094 µM

Q: What about the IC50 ([2]; HCT-8, SRB, 48 h) of the same compound?
A: 0.133 µM

Q: And the IC50 ([3]; A549, SRB, 48 h)?
A: 0.064 µM

Q: And the IC50 ([4]; MCF7, MCF-7, SRB, 48 h)?
A: 0.066 µM

Q: What about the IC50 ([5]; CNE-2, CNE2, SRB, 48 h) of the same compound?
A: 0.036 µM

Q: What about the IC50 ([6]; SW480, SRB, 48 h) of the same compound?
A: 0.047 µM

Q: And the IC50 ([7]; HepG2, SRB, 48 h)?
A: 0.058 µM

Q: And the IC50 [8, 12]?
A: 0.049 µM

Q: And the IC50 [9, 13]?
A: 0.096 µM

Q: What about the IC50 [10, 14] of the same compound?
A: 0.105 µM

Q: What about the IC50 [11, 15] of the same compound?
A: 0.045 µM

Q: What about the IC50 (tubulin) of the same compound?
A: 3.56 µM

Q: What does the source list for COc1ccc(/C=C/C(=O)c2ccccc2-c2ccc(OC)c(OC)c2OC)cc1O [compound 5, (E)-3-(3-Hydroxy-4-methoxyphenyl)-1-(2′,3′,4′-trimethoxy[1,1′-biphenyl]-2-yl)prop-2-en-1-one]?
A: IC50 ([1]; A2780, SRB, 48 h): 0.074 µM; IC50 ([2]; HCT-8, SRB, 48 h): 0.059 µM; IC50 ([3]; A549, SRB, 48 h): 0.055 µM; IC50 ([4]; MCF7, MCF-7, SRB, 48 h): 0.096 µM; IC50 ([5]; CNE-2, CNE2, SRB, 48 h): 0.045 µM; IC50 ([6]; SW480, SRB, 48 h): 0.074 µM; IC50 ([7]; HepG2, SRB, 48 h): 0.052 µM; IC50 [8, 12]: 0.289 µM; IC50 [9, 13]: 0.266 µM; IC50 [10, 14]: 0.122 µM; IC50 [11, 15]: 0.059 µM; IC50 (tubulin): 6.5 µM

Q: What does the source list for COc1ccc(/C=C/C(=O)c2ccccc2-c2cc(OC)c(OC)c(OC)c2)cc1O [compound 4, (E)-3-(3-Hydroxy-4-methoxyphenyl)-1-(3′,4′,5′-trimethoxy[1,1′-biphenyl]-2-yl)prop-2-en-1-one]?
A: IC50 ([1]; A2780, 48 h): 0.069 µM; IC50 ([2]; HCT-8, 48 h): 0.056 µM; IC50 ([3]; A549, 48 h): 0.069 µM; IC50 ([4]; MCF7, 48 h): 0.082 µM; IC50 ([5]; CNE-2, 48 h): 0.037 µM; IC50 ([6]; SW480, 48 h): 0.061 µM; IC50 ([7]; HepG2, 48 h): 0.046 µM; IC50 ([8]; A2780/TAX): 0.364 µM; IC50 [9]: 0.238 µM; IC50 ([10]; A549/CDDP): 0.093 µM; IC50 [11]: 0.066 µM; IC50 (tubulin): 2.78 µM

Q: For COc1ccc(/C=C/C(=O)c2ccccc2-c2ccc(F)cc2)cc1B(O)O [compound 1, (E)-(5-(3-(4′-Fluoro[1,1′-biphenyl]-2-yl)-3-oxoprop-1-en-1-yl)-2-methoxyphenyl)boronic acid], which IC50 ([1]; A2780, SRB, 48 h) is on record?
A: 0.063 µM

Q: And the IC50 ([2]; HCT-8, SRB, 48 h)?
A: 0.063 µM

Q: And the IC50 ([3]; A549, SRB, 48 h)?
A: 0.07 µM

Q: What about the IC50 ([4]; MCF7, MCF-7, SRB, 48 h) of the same compound?
A: 0.04 µM

Q: What about the IC50 ([5]; CNE-2, CNE2, SRB, 48 h) of the same compound?
A: 0.083 µM

Q: What about the IC50 ([6]; SW480, SRB, 48 h) of the same compound?
A: 0.041 µM

Q: What about the IC50 ([7]; HepG2, SRB, 48 h) of the same compound?
A: 0.03 µM

Q: What about the IC50 [8, 12] of the same compound?
A: 0.227 µM

Q: What about the IC50 [9, 13] of the same compound?
A: 0.084 µM

Q: And the IC50 [10, 14]?
A: 0.074 µM

Q: What about the IC50 [11, 15] of the same compound?
A: 0.024 µM

Q: What about the IC50 (tubulin) of the same compound?
A: 3.41 µM

Q: What does the source list for COc1ccc(/C=C/C(=O)c2ccccc2-c2cccc(F)c2)cc1B(O)O [compound 6, (E)-(5-(3-(3′-Fluoro[1,1′-biphenyl]-2-yl)-3-oxoprop-1-en-1-yl)-2-methoxyphenyl)boronic Acid]?
A: IC50 ([1]; A2780, SRB, 48 h): 0.062 µM; IC50 ([2]; HCT-8, SRB, 48 h): 0.054 µM; IC50 ([3]; A549, SRB, 48 h): 0.059 µM; IC50 ([4]; MCF7, MCF-7, SRB, 48 h): 0.083 µM; IC50 ([5]; CNE-2, CNE2, SRB, 48 h): 0.055 µM; IC50 ([6]; SW480, SRB, 48 h): 0.055 µM; IC50 ([7]; HepG2, SRB, 48 h): 0.037 µM; IC50 [8, 12]: 0.124 µM; IC50 [9, 13]: 0.078 µM; IC50 [10, 14]: 0.063 µM; IC50 [11, 15]: 0.074 µM

Q: How did the IC50 ([1]; A2780, SRB, 48 h) turn out when COc1ccc(-c2ccccc2C(=O)/C=C/c2ccc(N(C)C)cc2)c(OC)c1OC [compound 9, (E)-1-(2′,3′,4′-trimethoxy[1,1′-biphenyl]-2-yl)-3-(4-(Dimethylamino)phenyl)prop-2-en-1-one] was run?
A: 0.117 µM

Q: And the IC50 ([2]; HCT-8, SRB, 48 h)?
A: 0.153 µM

Q: And the IC50 ([3]; A549, SRB, 48 h)?
A: 0.085 µM

Q: What about the IC50 ([4]; MCF7, MCF-7, SRB, 48 h) of the same compound?
A: 0.124 µM

Q: What about the IC50 ([5]; CNE-2, CNE2, SRB, 48 h) of the same compound?
A: 0.053 µM

Q: What about the IC50 ([6]; SW480, SRB, 48 h) of the same compound?
A: 0.037 µM

Q: What about the IC50 ([7]; HepG2, SRB, 48 h) of the same compound?
A: 0.072 µM

Q: And the IC50 [8, 12]?
A: 0.156 µM

Q: What about the IC50 [9, 13] of the same compound?
A: 0.169 µM

Q: What about the IC50 [10, 14] of the same compound?
A: 0.401 µM

Q: What about the IC50 [11, 15] of the same compound?
A: 0.053 µM
